Counter-ions that a name gives are not always drawn.
Tested on: thromboxane synthetase
Test: not given
Conditions: prior-art compounds, literature reports as judged by the applicant; cited from earlier work
For `Cn1ccnc1` [1-methylimidazole], the “inhibitory activity on thromboxane synthetase” value (from here on “inhibitory activity”) is given as “very weak”.
For `CCCCCC(O)C=CC1C2CC(N=N2)C1CC=CCCCC(=O)O` (centres unmarked) [9,11-azo-15-hydroxyprosta-5,13-dienoic acid], the “inhibitory activity” value is given as “very weak”.
For `CCCCCC(O)C=CC1C2COC(C2)C1CC=CCCCC(=O)O` (centres unmarked) [9,11-epoxymethano-15-hydroxyprosta-5,13-dienoic acid], the “inhibitory activity” value is given as “very weak”.
For `CCCCCCCCC1C2COC(C2)C1CCCCCCC(=O)O` (centres unmarked) [9,11-epoxymethanoprostanoic acid], the “inhibitory activity” value is given as “very weak”.
In the case of `CC(C)c1[nH]c2ccccc2c1C(=O)c1cccnc1` [Example L-8027, 2-isopropyl-3-nicotinylindole], the “inhibitory activity” value is listed as “very weak”.
In the case of `CCCCCC=CC[C@@H](C=CC=CCC=CCCCC(=O)O)OO` [HPETE, 12L-hydroperoxy-5,8,10,14-eicosatetraenoic acid], the “inhibitory activity” value is given as “very weak”.
For `c1c[nH]cn1` [imidazole], the “inhibitory activity” value is listed as “very weak”.
In the case of `CC(Cc1ccc(O)c(O)c1)C(C)Cc1ccc(O)c(O)c1` (centres unmarked) [nordihydroguaiaretic acid], the “inhibitory activity” value is listed as “very weak”.
In the case of “sodium p-benzyl-4-[1-oxo-2-(4-chlorobenzyl)-3-phenylpropyl]phenylphosphonate [Example N-0164]”, the “inhibitory activity” value is listed as “very weak”.

Molecular target: T1, thromboxane synthetase from rabbit platelet microsomes (Oryctolagus cuniculus, UniProt G1TAZ9)
T1 construct: thromboxane synthetase from rabbit platelet microsomes; from tissue; host or cells: rabbit platelet microsomes
T1 sequence (G1TAZ9 1-530): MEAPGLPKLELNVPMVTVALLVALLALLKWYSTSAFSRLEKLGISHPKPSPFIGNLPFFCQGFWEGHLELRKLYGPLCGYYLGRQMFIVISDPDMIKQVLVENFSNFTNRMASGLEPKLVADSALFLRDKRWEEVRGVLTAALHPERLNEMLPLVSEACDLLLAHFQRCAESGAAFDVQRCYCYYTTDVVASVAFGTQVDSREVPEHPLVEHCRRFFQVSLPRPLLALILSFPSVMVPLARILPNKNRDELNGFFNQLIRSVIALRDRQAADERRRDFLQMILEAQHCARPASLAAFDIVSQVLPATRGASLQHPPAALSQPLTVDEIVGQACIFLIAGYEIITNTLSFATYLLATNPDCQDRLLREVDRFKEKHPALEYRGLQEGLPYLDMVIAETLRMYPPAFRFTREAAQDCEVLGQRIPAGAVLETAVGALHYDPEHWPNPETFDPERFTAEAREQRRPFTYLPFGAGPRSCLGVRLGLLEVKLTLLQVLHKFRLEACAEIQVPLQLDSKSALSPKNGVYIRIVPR
Test: inhibition of thromboxane synthetase from rabbit platelet microsomes (conversion of prostaglandin H2 into thromboxane B2)
Type: biochemical
Conditions: not given
With `CCOC(=O)C(C)Oc1ccc(Cc2cccnc2)cc1` (centres unmarked) [2-[4-(3-Pyridylmethyl)phenoxy]propionic acid ethyl ester] the IC50 was 3 to 650 nM.

Same assay, conditions: rabbit platelet microsomes; one common range stated for all listed compounds; read-out: molar concentration producing a 50% inhibition of thromboxane synthetase
Molecule `CC(C)(Cc1ccc(Cc2cccnc2)cc1)C(=O)O` [2,2-Dimethyl-3-[4-(3-pyridylmethyl)phenyl]propionic acid hydrochloride] has an IC50 of 3 to 650 nM.
Work on `CC(C)(Oc1ccc(Cc2cccnc2)cc1)C(=O)O` [2-Methyl-2-[4-(3-pyridylmethyl)phenoxy]propionic acid hydrochloride] yielded an IC50 of 3 to 650 nM.
Molecule `CC(C)(Sc1ccc(Cc2cccnc2)cc1)C(=O)O` [2-Methyl-2-[4-(3-pyridylmethyl)phenylthio]propionic acid hydrochloride] has an IC50 of 3 to 650 nM.
Molecule `CC(Cc1ccc(C(C)c2cccnc2)cc1)C(=O)O` (centres unmarked) [2-Methyl-3-[4-(1-3'-pyridylethyl)phenyl]propionic acid hydrochloride] has an IC50 of 3 to 650 nM.
Work on `CCOC(=O)C(C)Cc1ccc(Cc2cccnc2)cc1` (centres unmarked) [2-Methyl-3-[4-(3-pyridylmethyl)phenyl]propionic acid ethyl ester] yielded an IC50 of 3 to 650 nM.
`CC(Cc1ccc(Cc2cccnc2)cc1)C(=O)O` (centres unmarked) [2-Methyl-3-[4-(3-pyridylmethyl)phenyl]propionic acid hydrochloride] showed an IC50 of 3 to 650 nM.
`O=C(O)COc1ccc(Cc2cccnc2)cc1` [2-[4-(3-Pyridylmethyl)phenoxy]acetic acid hydrochloride] showed an IC50 of 3 to 650 nM.
`CC(Oc1ccc(Cc2cccnc2)cc1)C(=O)O` (centres unmarked) [2-[4-(3Pyridylmethyl)phenoxy]propionic acid hydrochloride] showed an IC50 of 3 to 650 nM.
Work on `CC(CC(=O)O)c1ccc(Cc2cccnc2)cc1` (centres unmarked) [3-[4-(3-Pyridylmethyl)phenyl]butyric acid hydrochloride] yielded an IC50 of 3 to 650 nM.
Molecule `CCOC(=O)CCc1ccc(Cc2cccnc2)cc1` [3-[4-(3-Pyridylmethyl)phenyl]propionic acid ethyl ester] has an IC50 of 3 to 650 nM.
Molecule `O=C(O)CCc1ccc(Cc2cccnc2)cc1` [3-[4-(3-Pyridylmethyl)phenyl]propionic acid hydrochloride] has an IC50 of 3 to 650 nM.
Molecule `O=C(O)c1ccc(Cc2cccnc2)cc1` [4-(3-Pyridylmethyl)benzoic acid hydrochloride] has an IC50 of 3 to 650 nM.
`CCOC(=O)COc1ccc(Cc2cccnc2)cc1` [4-(3-Pyridylmethyl)phenoxyacetic acid ethyl ester] showed an IC50 of 3 to 650 nM.
`O=C(O)Cc1ccc(Cc2cccnc2)cc1` [4-(3-Pyridylmethyl)phenylacetic acid hydrochloride] gave an IC50 of 3 to 650 nM.
With `Oc1ccc(Cc2cccnc2)cc1` [4-(3-pyridylmethyl)phenol hydrochloride, 4-(3-Pyridylmethyl)phenol hydrochloride] the IC50 was 3 to 650 nM.
In the case of `O=C(O)/C(Br)=C/c1ccc(Cc2cccnc2)cc1` [(2)-2-Bromo-3-[4-(3-pyuridylemthyl)phenyl]acrylic acid hydrochloride], the IC50 is reported as 3 to 650 nM.
For `CC/C(=C\c1ccc(Cc2cccnc2)cc1)C(=O)O` [(E)-2-Ethyl-3-[4-(3-pyridylmethyl)phenyl]acrylic acid hydrochloride], the IC50 was 3 to 650 nM.
`CCOC(=O)/C(C)=C/c1cccc(Cc2cccnc2)c1` [(E)-2-Methyl-3-[3-(3-pyridylmethyl)phenyl]acrylic acid ethyl ester] gave an IC50 of 3 to 650 nM.
`C/C(=C\c1cccc(Cc2cccnc2)c1)C(=O)O` [(E)-2-Methyl-3-[3-(3-pyridylmethyl)phenyl]acrylic acid hydrochloride] gave an IC50 of 3 to 650 nM.
Work on `CCOC(=O)/C(C)=C/c1ccc(Cc2cccnc2)c(C)c1` [(E)-2-Methyl-3-[3-Methyl-4-(3-pyridylmethyl)phenyl]acrylic acid ethyl ester] yielded an IC50 of 3 to 650 nM.
In the case of `C/C(=C\c1ccc(Cc2cccnc2)c(C)c1)C(=O)O` [(E)-2-Methyl-3-[3-methyl-4-(3-pyridylmethyl)phenyl]acrylic acid hydrochloride], the IC50 is reported as 3 to 650 nM.
Molecule `C/C(=C\c1ccc(C(C)c2cccnc2)cc1)C(=O)O` (centres unmarked) [(E)-2-Methyl-3-[4-(1-3'-pyridylethyl)phenyl]acrylic acid hydrochloride] has an IC50 of 3 to 650 nM.
In the case of `C/C(=C\c1ccc(Cc2cccnc2)cc1)C(=O)O` [(E)-2-Methyl-3-[4-(3-pyridylmethyl)pehnyl]acrylic acid hydrochloride], the IC50 is reported as 3 to 650 nM.
For `C/C(=C\c1ccc(Cc2cccnc2)cc1)C(=O)Oc1ccccc1C` [(E)-2-Methyl-3-[4-(3-pyridylmethyl)phenyl]acrylic acid 2-methylphenyl ester], the IC50 was 3 to 650 nM.
`C/C(=C\c1ccc(Cc2cccnc2)cc1)C(=O)Oc1cccc(C(F)(F)F)c1` [(E)-2-Methyl-3-[4-(3-pyridylmethyl)phenyl]acrylic acid 3-trifluoromethylphenyl ester] gave an IC50 of 3 to 650 nM.
Molecule `C/C(=C\c1ccc(Cc2cccnc2)cc1)C(=O)OCc1ccccc1` [(E)-2-Methyl-3-[4-(3-pyridylmethyl)phenyl]acrylic acid benzyl ester] has an IC50 of 3 to 650 nM.
In the case of `C/C(=C\c1ccc(Cc2cccnc2)cc1)C(=O)OCc1ccc(-c2ccccc2)cc1` [(E)-2-Methyl-3-[4-(3-pyridylmethyl)phenyl]acrylic acid biphenylmethyl ester], the IC50 is reported as 3 to 650 nM.
Molecule `C/C(=C\c1ccc(Cc2cccnc2)cc1)C(=O)Oc1ccccc1` [(E)-2-Methyl-3-[4-(3-pyridylmethyl)phenyl]acrylic acid phenyl ester] has an IC50 of 3 to 650 nM.
For `CCSC(=O)/C(C)=C/c1ccc(Cc2cccnc2)cc1` [(E)-2-Methyl-3-[4-(3-pyridylmethyl)phenyl]thioacrylic S-acid S-ethyl ester hydrochloride], the IC50 was 3 to 650 nM.
In the case of `C/C(=C\c1ccc(Cc2cnccc2C)cc1)C(=O)O` [(E)-2-Methyl-3-[4-(4-methyl-3-pyridylmethyl)phenyl]acrylic acid hydrochloride], the IC50 is reported as 3 to 650 nM.
With `Cc1cc(/C=C/C(=O)O)ccc1Cc1cccnc1` [(E)-3-[3-Methyl-4-(3-pyridylmethyl)phenyl]acrylic acid hydrochloride] the IC50 was 3 to 650 nM.
`O=C(O)/C=C/c1ccc(C(O)c2cccnc2)cc1` (centres unmarked) [(E)-3-[4-(3-Pyridylhydroxymethyl)phenyl]acrylic acid hydrochloride] showed an IC50 of 3 to 650 nM.
`C/C(=C\C(=O)O)c1ccc(Cc2cccnc2)cc1` [(E)-3-[4-(3-Pyridylmethyl)phenyl]-2-butenoic acid hydrochloride] gave an IC50 of 3 to 650 nM.
In the case of `O=C(O)/C=C/c1ccc(Cc2cccnc2)cc1` [(E)-3-[4-(3-Pyridylmethyl)phenyl]acrylic acid hydrochloride], the IC50 is reported as 3 to 650 nM.
Work on `C/C(=C\c1ccc(Cc2cccnc2)s1)C(=O)O` [(E)-5-(3-Pyridylmethyl)-2-(2-carboxy-1-propenyl(thiophene hydrochloride] yielded an IC50 of 3 to 650 nM.
In the case of `O=C(O)/C=C/c1ccc(Cc2cccnc2)s1` [(E)-5-(3-Pyridylmethyl)-2-(2-carboxyvinyl)thiophene hydrochloride], the IC50 is reported as 3 to 650 nM.
In the case of `COC(=O)/C(Br)=C/c1ccc(Cc2cccnc2)cc1` [(Z)-2-Bromo-3-[4-(3-pyridylmethyl)phenyl]acrylic acid methyl ester], the IC50 is reported as 3 to 650 nM.

Reference: patent US4271170A, “Pyridine derivatives” (Ono Pharmaceutical Co., Ltd.,, priority 1978, dated 1981)
